Laboratory results taken from PubChem BioAssay (NCI).
Values joined by “and” are separate entries in the source; they are usually repeats but may differ in a detail not shown here. Equal values may be shown once.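 Exposure lasted 48 hours, with cells grown in 96-well plates and compounds tested at five concentrations. GI50 = concentration required for 50% inhibition of growth. At the TGI there is no net growth.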

What was measured:
Test in all cases: growth of human tumour cells (NCI), 48 h
A498 renal = tested on: A498 renal
A549 NSCLC = tested on: A549 NSCLC
EKVX NSCLC = tested on: EKVX NSCLC
HT29 colon = tested on: HT29 colon
KM12 colon = tested on: KM12 colon
NCI-H460 lung = tested on: NCI-H460 lung
NCI-H522 lung = tested on: NCI-H522 lung
RXF 393 renal = tested on: RXF 393 renal
SK-OV-3 ovarian = tested on: SK-OV-3 ovarian
SR leukemia = tested on: SR leukemia

Structure (SMILES)	TGI (A498 renal) [µM]	TGI (A549 NSCLC) [µM]	TGI (EKVX NSCLC) [µM]	TGI (HT29 colon) [µM]	TGI (KM12 colon) [µM]	TGI (NCI-H460 lung) [µM]	TGI (NCI-H522 lung)	TGI (RXF 393 renal) [µM]	TGI (SK-OV-3 ovarian) [µM]	TGI (SR leukemia) [µM]	GI50 (NCI-H522 lung)	GI50 (SR leukemia) [µM]
CSc1cc(Cl)c(C)cc1S(=O)(=O)NC(=O)NNc1ccccn1	> 100	> 100	> 100	> 100	> 100	> 100	> 100 µM	> 100	> 100	> 100		
Cc1ccc(NNc2cc(=O)[nH]c(=O)[nH]2)cc1Cl	> 100	> 100		28.7	> 100	> 100	32.8 µM	30.4	> 100	> 100		
C=C(Br)C(Cl)(CBr)CCC(Br)C(C)(C)Cl (centres undefined)	> 10	> 10	> 10	> 10	> 10		> 10 µM	> 10	> 10	> 10		
Cc1ccc(N2C(=O)CC(=O)N(NC(=O)C(C)Oc3ccccc3C)C2=S)cc1 (centres undefined)	> 100	> 100	> 100	> 100	> 100	> 100	> 100 µM	> 100	> 100	> 100		
CCC(/C=C/c1ccccc1)=N\NC(=S)N/N=C(/C=C/c1ccccc1)CC	59.8	> 100	> 100	> 100	> 100	> 100	> 100 µM	> 100	> 100	91.3		
CCCC(=O)N[C@@H](Cc1cc(I)c(O)c(I)c1)C(=O)NCCCNCCCCNCCCNC(=O)[C@@H](N)CCCN=C(N)N		> 100	> 100	> 100	> 100	> 100	> 100 µM	> 100		> 100		
C/C(=N/NC(=S)N(Cc1ccccn1)Cc1ccccn1)c1cnccn1	> 100	14.5	7.4	10.3	19.7	> 33.1	1.56 µM	17.4	4.27	> 55.2		
Cc1ccnc2c1c(=O)c1ccccc1n2C	> 100		> 100	85.2	> 100	44.9	65.7 µM	> 100	> 100	> 100		
C#CCSc1cnc2ccccc2c1Sc1c[nH]c2ccccc2c1=O		> 100	> 100	> 100	65	59.8	29.1 µM	36.1	> 100	> 100		
C/C=C/OC1C(C2COC(C)(C)O2)OC2OC(C)(C)OC21 (centres undefined)	> 100	> 100	> 100	> 100		> 100	> 100 µM	> 100	> 100	> 100		
CC(C)(N=NC(C)(C)C1=NCCN1)C1=NCCN1	> 100	> 100	> 100	> 100	> 100	> 100	> 100 µM and 60 µM	> 100	> 100	> 100	9.38 µM and 21.4 µM	> 100
O=C(CN=C(CN(c1ccccc1)c1ccccc1)Oc1c([N+](=O)[O-])cc([N+](=O)[O-])cc1[N+](=O)[O-])N1CCNCC1		> 100	> 100	> 100	> 100	> 100	> 100 µM	> 100	> 100	> 100		
COc1ccc(C2c3cc4c(cc3OC(N3CCOCC3)C2C)OCO4)c(OC)c1 (centres undefined)	15	58	> 85.3	13.2	34	24.4	8.95 µM	10.7	52.6	> 68		
COc1ccc(CN=C2Nc3ccncc3S(=O)(=O)N2c2ccccc2)cc1	> 100	> 100	> 100	> 100	> 100	> 100	> 100 µM	> 100	> 100	73.3		
CC1C=C(NCC2(CO)CCC2)NC(N)=N1 (centres undefined)	> 100	> 100	> 100	> 100	> 100	> 100	> 100 µM	> 100	> 100	> 100		
CCOC(=O)c1ccc(Nc2nc3ccc(C(F)(F)F)cc3nc2-c2ccccc2)cc1		> 100	> 100	> 100	> 100	> 100	> 100 µM	> 100		> 100		
Cc1cc2nc3c(C(O)CO)nn(-c4ccccc4)c3nc2cc1C (centres undefined)	34.9	48.5	63.4	46.5	33.4	37.4	68 µM	43.6		33.4		

Structure (SMILES)	TGI (A498 renal) [µM]	TGI (A549 NSCLC) [µM]	TGI (EKVX NSCLC) [µM]	TGI (HT29 colon) [µM]	TGI (KM12 colon) [µM]	TGI (NCI-H460 lung) [µM]	TGI (NCI-H522 lung)	TGI (RXF 393 renal) [µM]	TGI (SK-OV-3 ovarian) [µM]	TGI (SR leukemia) [µM]	GI50 (NCI-H522 lung)	GI50 (SR leukemia) [µM]
CC(=O)NC1CCC(NC(=O)OC(C)(C)C)C(NC(=O)OC(C)(C)C)C1 (centres undefined)	> 100	> 100		> 100	> 100	> 100	> 100 µM	> 100	> 100	> 100		
C=CCOc1ccc(C2c3c([nH][nH]c3=O)CC(C)(O)C2C(=O)OC)cc1OC (centres undefined)	> 100	> 100	> 100	> 100	> 100	> 100	> 100 µM			> 100		
CCCN(CCC)C(=O)Cc1c2n(c3ccccc13)Cc1ccccc1-2		> 100	> 100	> 100	> 100	> 100	> 100 µM	> 100	> 100	> 100		
Cc1ccc(-c2c(C#N)c(S)n(NS(=O)(=O)c3ccccc3)c(=O)c2C#N)cc1	> 100	> 100	> 100		77.6	31.3	52.3 µM	> 100	> 100	58.1		
CCOC(=O)CC[C@@H](NC(=O)c1ccc(NCc2ccc3nc(OC)c(OC)nc3c2)cc1)C(=O)OCC		> 100	> 100	> 100	> 100	44.3	50.5 µM	> 58.1	> 100	> 87.4		
N#Cc1nc(Cc2ccccc2)oc1N		> 100	> 100	> 100	> 100	> 100		> 100	> 100	> 100		
COc1ccc(/C=N/n2c(Cc3ccc(Cl)cc3)n[nH]c2=O)cc1	> 100	> 100	> 100	28.2	> 100	> 100		35.1	> 100	> 100		
Cc1ccc(NC(=S)NNC(=O)c2cc(-c3ccccc3)nc3ccccc23)cc1C	34.2	43.7		49.2	80	38.7	50.8 µM	55.5	32.9	36.4		
O=C(COC(=O)c1ccccc1)c1ccc(Br)cc1	29.5	40.5	28	46.3	37	37.2		11.6	33.3	7.11		
CCOC(=O)c1cc2cc(CSc3ccccc3)ccc2oc1=O		> 100	> 100	> 100	> 100	> 100	> 100 µM	> 100	> 100	> 100		
Cn1c2c(c3ccccc31)CC(=O)N1CCCCC1C21OCCO1 (centres undefined)	> 100	> 100	> 100	> 100	> 100	> 100		> 100	> 100	> 100		
O=C(c1ccc(Cl)cc1)N(C(=S)N1CCN(c2ccccc2)CC1)c1ccccc1		> 100		> 100	> 100	> 100	> 100 µM	> 100	> 100	> 100		
C=CCC1(O)c2cccc(O)c2C(=O)c2cccc(O)c21 (centres undefined)	37	88.1	60.1	64.1	85	48	42 µM	37		36.3		
Nc1ccccc1Sc1ccc(Cl)cc1	> 100	> 100	76.9	36.3	> 100	68.9		32.1	> 100	57.8		
CCOC(=O)c1c(NC(=O)c2ccccc2)sc2c1CCC2	> 100	> 100	> 100	> 100	> 100	> 100		> 100		> 100		
C=CCN1C(=O)/C(=C/c2cccs2)N=C1SC1OC(COC(=O)c2ccccc2)C(OC(=O)c2ccccc2)C1OC(=O)c1ccccc1 (centres undefined)	> 100		> 100		> 100	> 100	28 µM	> 100	> 100	> 100		
CCOC(=O)NC(N(C)C(C(C)C)P(=O)(OCC)OCC)(C(F)(F)F)C(F)(F)F (centres undefined)	> 100	> 100	> 100	> 100	> 100	> 100	> 100 µM	> 100		> 100		
